Source: patent publication US20220402916A1, “SMALL MOLECULE INHIBITORS OF KRAS G12C MUTANT” (Merck Sharp & Dohme Corp., priority 2019, published 2022)
Read-outs that look alike come from different tables or passages of the source.

Key:
[1] = biological target: T1, Biotinylated KRAS G12C protein (Homo sapiens, UniProt P01116, C118S/C51S/C80L/G12C); test: SOS-catalyzed nucleotide exchange assay; format: biochemical; settings: apparent potency; preincubation time of 60 minutes prior to addition of SOS
T1 construct: 183 amino acids; biotin on K10
T1 sequence (P01116 with tags, fused parts or gaps isoform P01116-2 G12C/C51S/C80L/C118S): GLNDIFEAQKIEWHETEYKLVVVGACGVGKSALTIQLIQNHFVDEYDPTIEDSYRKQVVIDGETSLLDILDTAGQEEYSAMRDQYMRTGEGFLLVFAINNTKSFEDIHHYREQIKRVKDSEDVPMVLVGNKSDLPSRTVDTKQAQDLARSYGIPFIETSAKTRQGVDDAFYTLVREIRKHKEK

NCI-H358 cells = test: Cellular phospho-ERK assay; format: cell-based; settings: NCI-H358 cells, 2 hour incubation, ratio of p-Erk vs total Erk, read-out: IC50
Method: NCI-H358 cells (ATCC® CRL-5807™) were cultured in T150 flask in growth medium (RPMI medium 1640-GlutaMAX™-1 (ThermoFisher Scientific 61870) containing 10% fetal bovine serum (ThermoFisher Scientific 10091148)). The cells were harvested in growth medium after TrypLE (ThermoFisher scientific 12604021) digestion and were seeded in 384-well collagen coated cell culture plate (Corning 356702) at a density of 15,000 cells/well, and incubated at 37° C., 5% CO2 overnight. The compound dose-response titrations were prepared and appropriate amounts of compounds were dispensed in 384-well intermediate plate using Echo 550 liquid handler. RPMI medium 1640-GlutaMAX™-I were added to the intermediate plate and transferred to 384-well cell culture plate, which was incubated at 37° C., 5% CO2 for 2 hours. After removal of medium from the plate, cells were lysed in lysis buffer from Alpha SureFire® Ultra™ Multiplex p-Erk and total Erk assay kit (PerkinElmer MPSU-PTERK) containing Halt™ Protease and Phosphotase inhibitor cocktail (ThermoFisher Scientific 78446) at room temperature with constant shaking at 300 rpm for 30 minutes. The cell lysates were then transferred to OptiPlate-384 plate (PerkinElmer 6005620) and the phosphorylation of Erk and total Erk levels were detected by Alpha SureFire Ultra Multiplex p-Erk kit (PerkinElmer MPSU-PTERK) following the manufacturer's protocol. Assay plates were read on an EnVision Multimode Plate Reader (PerkinElmer) and the ratio of p-Erk vs total Erk in each well was used as the final readout. Dose response curves were analyzed using a 4-parameter logistic model to calculate IC50 values using spotfire software.

SMILES | IC50 [1] [nM] | IC50 (NCI-H358 cells; Homo sapiens, NCI-H358, 2 h) [nM] | IC50 (NCI-H358 cells) [nM]
C=CC(=O)N1CCN(c2cc(C(=O)NCC3(N)CCOCC3)nc3c2CCN(c2cccc4cccc(C)c24)C3)C[C@@H]1CC#N [Compound 90, (S)-4-(4-acryloyl-3-(cyanomethyl)piperazin-1-yl)-N-((4-aminotetrahydro-2H-pyran-4-yl)methyl)-7-(8-methylnaphthalen-1-yl)-5,6,7,8-tetrahydro-1,7-naphthyridine-2-carboxamide] | 21 | 2340 | 
C=CC(=O)N1CCN(c2cc(C(=O)N[C@H](C)CN(C)C)nc3c2CCN(c2cccc4cccc(C)c24)C3)C[C@@H]1CC#N [Compound 65, 4-((S)-4-acryloyl-3-(cyanomethyl)piperazin-1-yl)-N-((R)-1-(dimethylamino)propan-2-yl)-7-(8-methylnaphthalen-1-yl)-5,6,7,8-tetrahydro-1,7-naphthyridine-2-carboxamide] | 2.1 | 16 | 
C=CC(=O)N1CCN(c2cc(C(=O)NC(C)CN3CCC(C)(O)C3)nc3c2CCN(c2cccc4cccc(C)c24)C3)C[C@@H]1CC#N (single isomer, unassigned) [Compound 75, 4-((S)-4-acryloyl-3-(cyanomethyl)piperazin-1-yl)-N-((R or S)-1-((S or R)-3-hydroxy-3-methylpyrrolidin-1-yl)propan-2-yl)-7-(8-methylnaphthalen-1-yl)-5,6,7,8-tetrahydro-1,7-naphthyridine-2-carboxamide] | 7.2 |  | 68
C=CC(=O)N1CCN(c2cc(C(=O)NCCN(C)C)nc3c2CCN(c2cccc4cccc(C)c24)C3)C[C@@H]1CC#N [Compound 64, (S)-4-(4-acryloyl-3-(cyanomethyl)piperazin-1-yl)-N-(2-(dimethylamino)ethyl)-7-(8-methylnaphthalen-1-yl)-5,6,7,8-tetrahydro-1,7-naphthyridine-2-carboxamide] | 2.7 | 106 | 
C=CC(=O)N1CCN(c2cc(C(=O)NC3(CN)CC3)nc3c2CCN(c2cccc4cccc(C)c24)C3)C[C@@H]1CC#N [Compound 88, (S)-4-(4-acryloyl-3-(cyanomethyl)piperazin-1-yl)-N-(1-(aminomethyl)cyclopropyl)-7-(8-methylnaphthalen-1-yl)-5,6,7,8-tetrahydro-1,7-naphthyridine-2-carboxamide] | 4.3 | 1000 | 
C=CC(=O)N1CCN(c2cc(C(=O)NC(C)CN3CCC(F)(F)C3)nc3c2CCN(c2cccc4cccc(C)c24)C3)C[C@@H]1CC#N (single isomer, unassigned) [Compound 72, 4-((S)-4-acryloyl-3-(cyanomethyl)piperazin-1-yl)-N—((S or R)-1-(3,3-difluoropyrrolidin-1-yl)propan-2-yl)-7-(8-methylnaphthalen-1-yl)-5,6,7,8-tetrahydro-1,7-naphthyridine-2-carboxamide] | 529 |  | 25400
C=CC(=O)N1CCN(c2cc(C(=O)NC(C)CN3CCC(C)(O)C3)nc3c2CCN(c2cccc4cccc(C)c24)C3)C[C@@H]1CC#N (single isomer, unassigned) [Compound 76, 4-((S)-4-acryloyl-3-(cyanomethyl)piperazin-1-yl)-N-((S or R)-1-((S or R)-3-hydroxy-3-methylpyrrolidin-1-yl)propan-2-yl)-7-(8-methylnaphthalen-1-yl)-5,6,7,8-tetrahydro-1,7-naphthyridine-2-carboxamide] | 6.2 |  | 207

Further compounds by falling IC50 [1], results first:

IC50 [1] [nM] | IC50 (NCI-H358 cells; Homo sapiens, NCI-H358, 2 h) [nM] | IC50 (NCI-H358 cells) [nM] | SMILES
90 | 9770 |  | C=CC(=O)N1CCN(c2cc(C(=O)NC(CC)CN3CCCC3)nc3c2CCN(c2cccc4cccc(C)c24)C3)CC1 (racemic) [Compound 23, rac-4-(4-acryloylpiperazin-1-yl)-7-(8-methylnaphthalen-1-yl)-N-(1-(pyrrolidin-1-yl)butan-2-yl)-5,6,7,8-tetrahydro-1,7-naphthyridine-2-carboxamide]
54 | 7350 |  | C=CC(=O)N1CCN(c2cc(C(=O)NC[C@]3(F)CCCNC3)nc3c2CCN(c2cccc4cccc(C)c24)C3)C[C@@H]1CC#N [Compound 107, 4-((S)-4-acryloyl-3-(cyanomethyl)piperazin-1-yl)-N-(((S)-3-fluoropiperidin-3-yl)methyl)-7-(8-methylnaphthalen-1-yl)-5,6,7,8-tetrahydro-1,7-naphthyridine-2-carboxamide]
26 | 14900 |  | C=CC(=O)N1CCN(c2cc(C(=O)N[C@H]3CNCC[C@H]3F)nc3c2CCN(c2cccc4cccc(C)c24)C3)C[C@@H]1CC#N [Compound 103, 4-((S)-4-acryloyl-3-(cyanomethyl)piperazin-1-yl)-N-((3S,4R)-4-fluoropiperidin-3-yl)-7-(8-methylnaphthalen-1-yl)-5,6,7,8-tetrahydro-1,7-naphthyridine-2-carboxamide]
22 | 2000 |  | C=CC(=O)N1CCN(c2cc(C(=O)N[C@H](C)CN3CC(O)(C(F)(F)F)C3)nc3c2CCN(c2cccc4cccc(C)c24)C3)C[C@@H]1CC#N [Compound 69, 4-((S)-4-acryloyl-3-(cyanomethyl)piperazin-1-yl)-N-((R)-1-(3-hydroxy-3-(trifluoromethyl)azetidin-1-yl)propan-2-yl)-7-(8-methylnaphthalen-1-yl)-5,6,7,8-tetrahydro-1,7-naphthyridine-2-carboxamide]
17 | 4890 |  | C=CC(=O)N1CCN(c2cc(C(=O)NCCC3CCCCN3)nc3c2CCN(c2cccc4cccc(C)c24)C3)C[C@@H]1CC#N (mixture of isomers) [Compound 105, 4-((S)-4-acryloyl-3-(cyanomethyl)piperazin-1-yl)-7-(8-methylnaphthalen-1-yl)-N-(2-((R)-piperidin-2-yl)ethyl)-5,6,7,8-tetrahydro-1,7-naphthyridine-2-carboxamide, as a mixture with 4-((S)-4-acryloyl-3-(cyanomethyl)piperazin-1-yl)-7-(8-methylnaphthalen-1-yl)-N-(2-((S)-piperidin-2-yl)ethyl)-5,6,7,8-tetrahydro-1,7-naphthyridine-2-carboxamide]
15 | 26700 |  | C=CC(=O)N1CCN(c2cc(C(=O)NC(CN)CN)nc3c2CCN(c2cccc4cccc(C)c24)C3)C[C@@H]1CC#N [Compound 87, (S)-4-(4-acryloyl-3-(cyanomethyl)piperazin-1-yl)-N-(1,3-diaminopropan-2-yl)-7-(8-methylnaphthalen-1-yl)-5,6,7,8-tetrahydro-1,7-naphthyridine-2-carboxamide]
15 | 5680 |  | C=CC(=O)N1CCN(c2cc(C(=O)NCC3(N)CCCCC3)nc3c2CCN(c2cccc4cccc(C)c24)C3)C[C@@H]1CC#N [Compound 89, (S)-4-(4-acryloyl-3-(cyanomethyl)piperazin-1-yl)-N-((1-aminocyclohexyl)methyl)-7-(8-methylnaphthalen-1-yl)-5,6,7,8-tetrahydro-1,7-naphthyridine-2-carboxamide]
12 | 6630 |  | C=CC(=O)N1CCN(c2cc(C(=O)Nc3ccccc3CN)nc3c2CCN(c2cccc4cccc(C)c24)C3)C[C@@H]1CC#N [Compound 94, (S)-4-(4-acryloyl-3-(cyanomethyl)piperazin-1-yl)-N-(2-(aminomethyl)phenyl)-7-(8-methylnaphthalen-1-yl)-5,6,7,8-tetrahydro-1,7-naphthyridine-2-carboxamide]
12 | 7860 |  | C=CC(=O)N1CCN(c2cc(C(=O)NCC3(N)CCCCCC3)nc3c2CCN(c2cccc4cccc(C)c24)C3)C[C@@H]1CC#N [Compound 91, (S)-4-(4-acryloyl-3-(cyanomethyl)piperazin-1-yl)-N-((1-aminocycloheptyl)methyl)-7-(8-methylnaphthalen-1-yl)-5,6,7,8-tetrahydro-1,7-naphthyridine-2-carboxamide]
12 | 1280 |  | C=C(F)C(=O)N1CCN(c2cc(C(=O)N[C@H](C)CN(C)C(C)C)nc3c2CCN(c2cccc4cccc(C)c24)C3)C[C@@H]1CC#N [Compound 79, 4-((S)-3-(cyanomethyl)-4-(2-fluoroacryloyl)piperazin-1-yl)-N-((R)-1-(isopropyl(methyl)amino)propan-2-yl)-7-(8-methylnaphthalen-1-yl)-5,6,7,8-tetrahydro-1,7-naphthyridine-2-carboxamide]
5 | 611 |  | C=C(F)C(=O)N1CCN(c2cc(C(=O)NC(C)CN3CCC(C)(O)C3)nc3c2CCN(c2cccc4cccc(C)c24)C3)C[C@@H]1CC#N (single isomer, unassigned) [Compound 77, 4-((S)-3-(cyanomethyl)-4-(2-fluoroacryloyl)piperazin-1-yl)-N—((R or S)-1-((S or R)-3-hydroxy-3-methylpyrrolidin-1-yl)propan-2-yl)-7-(8-methylnaphthalen-1-yl)-5,6,7,8-tetrahydro-1,7-naphthyridine-2-carboxamide]
